Legend:
[1] = test system: tumoroids from colon cancer patients; assay: Tumoroid growth inhibition measured as projected area by imaging (CyQUANT, IndiNet); assay type: cell-based, human; conditions: 50% inhibition of tumoroid growth (projected area), day 7, tumoroids from four control patients
Procedure: The tumoroids were prepared from patient samples as described above in Example 2 under “3D tumoroid preparation”. The tumoroids were added to drug screening arrays that we pre-loaded with varying concentrations of Oxaliplatin (3, 10, 30, 100, 300 uM), FOLFOX (0, 1, 0, 3, 1, 3, 10 30 uM. Equal concentrations of 5-Fluorouracil and Oxaliplatin) and SN38 (10, 30, 100, 300, 1000 nM). SN38 is the active components of Irinotecan. At day 6 to day 7 tumoroids were stained with CyQUANT (cell proliferation assay). Tumoroid growth was measured by taking brightfield images on day 0 and visualizing living cells using CyQUANT Cell proliferation assay (ThermoFisher) on day 7. All images were acquired using a Cytation 1 (BioTek) imaging system. For Control patients, tissue from resected tumor was used. This sampling method typically secures bigger amounts of tissue and mechanically as well as enzymatically digestion is performed.
Images from day 0 and day 7 were analysed using the Al image analysis algorithm IndiNet™, which quantifies the projected area (referred to as “area” in this example) of live cells in both brightfield (day 0) and fluorescence (day 7) images and calculates the relative growth inhibition. […]

[2] = test system: tumoroids from colon cancer patients; assay: Tumoroid ATP content (CellTiter-Glo 3D cell viability assay); assay type: cell-based, human; conditions: 50% inhibition of total ATP content, day 7, tumoroids from four control patients
Procedure: The tumoroids were prepared from the same patient samples as described above under “drug sensitivity measured with imaging”. The tumoroids were added to drug screening arrays that we pre-loaded with varying concentrations of Oxaliplatin (3, 10, 30, 100, 300 uM), FOLFOX (0, 1, 0, 3, 1, 3, 10 30 uM. Equal concentrations of 5-Fluorouracil and Oxaliplatin) and SN38 (10, 30, 100, 300, 1000 nM). ATP content of cells in the tumoroids was measured day 0 and on day 7 using CellTiter-Glo 3D cell viability assay (Promega; Catalog number G9681). The homogenous CellTiter-Glo 3D assays generates a luminescent signal that is proportional to the amount of cellular ATP. The assay was conducted in accordance with the instructions from the manufacture (Promega) by allowing the drug screening arrays to equilibrate to room temperature (20-25° C.) and then adding an amount of the CellTiter-Glo 3D reagent to the drug screening arrays. The equal volume of media and reagent is mixed thoroughly for 5 min to induce cell lysis and release of cellular ATP content. The luminescence signal was monitored with the Cytation 1 (BioTek) imaging system operating in luminescence mode. The luminescence signal was quantified by direct comparison to an ATP dose-response curve created by replacing the drug screening media with ATP standards.

[3] = Folfox = equal concentrations of 5-Fluorouracil and Oxaliplatin

Structure (SMILES)	IC50 [1, 3] [µM]	IC50 [2, 3] [µM]	IC50 [1] [µM]	IC50 [2] [µM]
O=C1[O][Pt]2([NH][C@@H]3CCCC[C@H]3[NH]2)[O]C1=O [Oxaliplatin, oxaliplatin]	17.7	72.7	–	–
CCc1c2c(nc3ccc(O)cc13)-c1cc3c(c(=O)n1C2)COC(=O)[C@]3(O)CC [SN38]	–	–	0.00164	0.0367
